# Experiment: method code SF-C, from DOI: 10.1021/ja01077a028
row,logP,Compound
1,2.02,O=C(O)COc1ccccc1Cl
2,1.18,N#Cc1cccc(CC(=O)O)c1
3,1.14,O=C(O)Cc1cccc(C(=O)O)c1
4,1.95,Cc1cccc(CC(=O)O)c1
5,1.22,O=C(O)COc1ccccc1[N+](=O)[O-]
6,2.62,O=C(O)Cc1cccc(C(F)(F)F)c1
7,1.5,O=C(O)Cc1ccccc1F
8,1.65,O=C(O)Cc1cccc(F)c1
9,1.5,COc1cccc(CC(=O)O)c1
10,2.1,O=C(O)COc1ccccc1Br

# Experiment: not given
row,logP,Compound
1,1.39,CC(=O)c1cccc(O)c1
2,3.79,O=C(O)COc1ccc(C2CCCCC2)cc1
3,2.64,O=[N+]([O-])c1cccc(Br)c1
4,1.38,COc1cccc(OCC(=O)O)c1
5,1.48,O=C(O)COc1ccc([N+](=O)[O-])cc1
6,0.76,O=C(O)COc1cccc(O)c1
7,2.19,O=C(O)COc1cccc(S(=O)(=O)C(F)(F)F)c1
8,2.33,O=C(O)COc1ccc2c(c1)CCC2
9,1.56,CN(C)c1cccc(O)c1
10,2.4,CCc1cccc(O)c1
11,0.26,NC(=O)Nc1cccc(OCC(=O)O)c1
12,-0.05,Nc1cccc(CO)c1
13,0.06,CS(=O)(=O)c1cccc(CC(=O)O)c1
14,1.21,O=[N+]([O-])c1cccc(CO)c1
15,1.9,CSc1cccc(OCC(=O)O)c1
16,1.71,Oc1ccccc1F
17,2.99,O=C(O)COc1ccc(N=Nc2ccccc2)cc1
18,2.86,O=C(O)COc1cccc(SC(F)(F)F)c1
19,2.71,CCCc1cccc(OCC(=O)O)c1
20,1.6,Cc1cccc(CO)c1
21,0.85,O=C(O)Cc1cccc(O)c1
22,3.18,CCCCc1cccc(OCC(=O)O)c1
23,1.37,O=C(O)COc1cccc([N+](=O)[O-])c1
24,1.11,O=C(O)COc1cccc(C(=O)O)c1
25,1.45,O=C(O)Cc1cccc([N+](=O)[O-])c1
26,1.83,COC(=O)c1cccc(C(=O)O)c1
27,1.42,CC(=O)c1cccc([N+](=O)[O-])c1

row,logP,Compound
1,3.41,O=C(O)COc1ccc(C2CCCC2)cc1
2,2.67,O=C(O)COc1ccc2c(c1)CCCC2
3,2.19,O=C(O)COc1ccccc1I
4,2.96,CC(C)(C)c1cccc(OCC(=O)O)c1
5,2.95,O=C(O)c1cccc(C(F)(F)F)c1
6,1.48,O=C(O)COc1cccc(F)c1
7,2.93,Oc1cccc(I)c1
8,1.3,Nc1cccc(F)c1
9,2.44,O=C(O)COc1cccc(I)c1
10,1.23,COc1ccc(OCC(=O)O)cc1
11,2.69,CC(C)c1ccc(OCC(=O)O)cc1
12,0.48,CC(=O)Nc1cccc(OCC(=O)O)c1
13,1.99,O=C(O)COc1cccc(NC(=O)c2ccccc2)c1
14,1.49,CC(=O)Oc1ccccc1
15,3.18,O=C(O)COc1cccc(-c2ccccc2)c1
16,2.31,O=C(O)Cc1ccc(Br)cc1
17,1.66,O=C(O)c1cccc(C(=O)O)c1
18,2.78,O=C(O)COc1cccc(S(F)(F)(F)(F)F)c1
19,2.86,O=C(O)c1ccc(Br)cc1
20,3.12,CCC(C)c1ccc(OCC(=O)O)cc1 (stereo not given)
21,1.7,N#Cc1cccc(O)c1
22,2.37,O=C(O)Cc1cccc(Br)c1
23,1.94,OCc1cccc(Cl)c1
24,2.48,O=C(O)COc1cccc(OC(F)(F)F)c1
25,1.25,CC(=O)c1ccccc1OCC(=O)O
26,0.01,CS(=O)(=O)c1cccc(OCC(=O)O)c1
27,2.59,CC(C)c1cccc(OCC(=O)O)c1

row,Compound,logP
1,Oc1ccccc1Br,2.35
2,COc1ccc(CO)cc1,1.1
3,N#Cc1cccc(C(=O)O)c1,1.48
4,O=C(O)COc1cccc(Cl)c1,2.03
5,O=C(O)COc1ccc(O)cc1,0.65
6,O=C(O)Cc1cccc(Cl)c1,2.09

# Source: the SangsterLogP compilation
